Each structure is given as a SMILES string.

This test concerns the target T1, 5-lipoxygenase (Cavia porcellus, UniProt A0A286X958).
T1 construct: The 5-LO was concentrated in a known manner from PMNs of male Dunkin-Hartley guinea-pigs; endogenous in cells; host or cells: peritoneal PMNs of male Dunkin-Hartley guinea-pigs, homogenized; 10,000 x g supernatant used as enzyme solution
T1 sequence (A0A286X958 1-674): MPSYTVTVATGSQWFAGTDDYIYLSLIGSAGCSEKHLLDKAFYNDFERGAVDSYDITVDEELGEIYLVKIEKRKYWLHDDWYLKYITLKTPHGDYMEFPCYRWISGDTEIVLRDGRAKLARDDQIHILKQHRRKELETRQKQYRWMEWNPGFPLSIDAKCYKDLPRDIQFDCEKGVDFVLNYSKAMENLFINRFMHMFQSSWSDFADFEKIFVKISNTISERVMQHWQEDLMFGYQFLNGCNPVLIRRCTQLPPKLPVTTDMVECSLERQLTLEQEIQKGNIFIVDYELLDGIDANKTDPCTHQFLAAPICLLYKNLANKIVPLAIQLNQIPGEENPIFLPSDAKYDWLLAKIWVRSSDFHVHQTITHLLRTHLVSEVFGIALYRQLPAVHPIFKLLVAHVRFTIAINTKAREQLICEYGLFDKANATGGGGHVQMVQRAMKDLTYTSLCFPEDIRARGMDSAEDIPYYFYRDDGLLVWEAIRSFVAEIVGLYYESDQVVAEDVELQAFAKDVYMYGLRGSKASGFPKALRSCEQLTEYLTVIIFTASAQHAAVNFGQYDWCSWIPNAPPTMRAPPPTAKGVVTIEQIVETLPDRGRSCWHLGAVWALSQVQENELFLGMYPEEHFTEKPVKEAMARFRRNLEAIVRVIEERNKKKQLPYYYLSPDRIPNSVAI
Description: inhibitory activity on free 5-lipoxygenase concentrated from peritoneal PMNs of the guinea-pig (5-HETE formation). It counts as biochemical. To be noted: 10^-5 mole/liter; guinea-pig 5-LO, 37° C.; read-out: In vitro % inhibitory activity on 5-HETE formation caused by free 5-LO. The source says:
4b. In vitro determination of inhibitory activity on 5-lipoxygenase concentrated from peritoneal PMNs of the guinea-pig.
An inhibition of 5-lipoxygenase can be caused by direct inhibitory action of the substances on the enzyme and/or by interference with the activation of the enzyme. While in test 4a the 5-lipoxygenase inhibition of the substances was investigated in rat PMN cells, in test 4b the inhibitory activity of the substances was investigated on free 5-LO concentrated from guinea-pig PMN cells according to the method of D. Aharony et al., J. Biol. Chem. 261 (1986), 11512-11519 (1986).
The 5-LO was concentrated in a known manner from PMNs of male Dunkin-Hartley guinea-pigs (body weight 400 to 500 g) as follows. 10 ml of a solution containing 27.9 g/l of sodium thioglycolate were injected i.p. into the animals in order to induce the PMN invasion as a result of this inflammatory stimulus. After 22 hours, the animals were sacrificed by lethal ether anaesthesia. 70 ml of HBSS without Ca^++ and Mg^++ ions and containing 0.2% by weight of sodium citrate were then injected into the abdominal cavity. The cell suspension (>80% of the cells are PMNs) was withdrawn from the abdominal cavity, filtered through a cheese-making filter cloth, and washed twice with a 50 mM potassium phosphate buffer solution of pH 7.4, which contained 0.5 mM ethylenediaminetetraacetic acid, 1% by weight of gelatine and 20 μM indomethacin. The cells were resuspended, and the PMN suspension containing 10^8 cells/ml was homogenized three times for 15 seconds each in an ice-bath in a homogenizer of the Labsonic™ type set at high speed. The resulting suspension was centrifuged at 4° C. (15 minutes at 10,000×g). The supernatant liquid was used for the investigation as a solution of the free 5-LO enzyme.
The experiments were carried out at 37° C. for 7 minutes using 0.625 ml samples of this enzyme solution. For the experiments, the enzyme solution (=equivalent of 2.5×10^7 cells), 0.5 mM glutathione, 1 mM ATP and 0.3 mM calcium chloride were added to test tubes. […] of the test substance were added to the samples dissolved in sufficient dimethylformamide such that the dimethylformamide concentration in each test tube is 0.5%. Only dimethylformamide was added to the control samples. After 2 minutes, the formation of 5-(S)-hydroxy-6,8,11,14-eicosatetraenoic acid (=[…]) was initiated by addition 10 μM arachidonic acid. After 5 minutes, the reaction was terminated by addition of 0.625 ml of a mixture of methyl acetate/methanol/0.2 m citric acid 15:2:0.5 v/v/v. 5-HETE was extracted twice using this solvent mixture. The 5-HETE-containing phases were combined and evaporated to dryness under a nitrogen atmosphere. The residue was taken up in a mixture of methanol/water/acetic acid 75:21:0.02 v/v/v having a pH of 5.7, and the solution was investigated for its content of 5-HETE by means of reverse phase HPLC. To accomplish this, a […] silanized silica gel column (Hichrom® ODS2, 250×4.6 mm) was employed as the adsorbent and a mixture of methanol/water/acetic acid 75:21:0.02 adjusted to pH 5.7 with ammonia and having a flow rate of 1 ml/min was used as the eluent. 5-HETE, which was eluted as a single peak after 20 minutes, was identified by comparison with standard solutions eluted at the same time and determined using a UV light detector at a wavelength of 235 nm. Quantitative determination was carried out by comparison of the peak area obtained with peak areas occurring in the calibrated standard solutions. From the 5-HETE contents of the samples determined, the inhibitory activity of the test substances was calculated in % inhibition of 5-HETE synthesis in comparison to the control samples containing no test substance.
Turning to `Cc1ccnc(N2CCN(CCC3Cn4c(-c5cc(C)c(O)c(C)c5)c(C)c5cccc(c54)O3)CC2)c1` (centres unmarked) [Example 20], the inhibition at 10 µM amounted to 100%.

With `Cc1cc(-c2c(C)c3c(O)ccc4c3n2CC(CCC(=O)N2CCN(c3ccccn3)CC2)O4)cc(C)c1O` (centres unmarked) [Example 71], the inhibition at 10 µM was found to be 100%.

For `Cc1ccnc(N2CCN(C(=O)CCC3Cn4c(-c5ccc(O)cc5)c(C)c5cccc(c54)O3)CC2)c1` (centres unmarked) [Example 15], the inhibition at 10 µM is 94%.

In the case of `Cc1ccnc(N2CCN(C(=O)CCC3Cn4c(-c5cc(C)c(O)c(C)c5)c(C)c5cccc(c54)O3)CC2)c1` (centres unmarked) [Example 25], the inhibition at 10 µM was determined as 92%.

Regarding `Cc1ccnc(N2CCN(C(=O)CCCC3Cn4c(-c5cc(C)c(O)c(C)c5)c(C)c5cccc(c54)O3)CC2)c1` (centres unmarked) [Example 9, 2,3-Dihydro-5-(3,5-dimethyl-4-hydroxyphenyl)-6-methyl-2-[4-(4-(4-methylpyridin-2-yl)piperazin-1-yl)-4-oxobutyl]-pyrrolo[1,2,3-de]-1,4-benzoxazine], the inhibition at 10 µM came out at 88%.

`Cc1ccnc(N2CCN(CCC3Cn4c(-c5cc(C)c(O)c(C)c5)c(C)c5cc(O)cc(c54)O3)CC2)c1` (centres unmarked) [Example 44]: the inhibition at 10 µM was found to be 98%.

`COc1cc(-c2c(C)c3cccc4c3n2CC(CCC(=O)N2CCN(c3ccc(C)cn3)CC2)O4)ccc1O` (centres unmarked) [Example 39]: the inhibition at 10 µM came out at 100%.

Regarding `Cc1ccnc(N2CCN(CCC3Cn4c(-c5cc(C)c(O)c(C)c5)c(C)c5c(F)ccc(c54)O3)CC2)c1` (centres unmarked) [Example 28], the inhibition at 10 µM worked out at 44%.

With `Cc1cc(-c2c(C)c3cccc4c3n2CC(CCCCN2CCN(c3ccccn3)CC2)O4)cc(C)c1O` (centres unmarked) [Example 65], the inhibition at 10 µM turned out to be 99%.

Take `Cc1ccnc(N2CCN(CCC3Cn4c(-c5cc(C)c(O)c(C)c5)c(C)c5cc(F)cc(c54)O3)CC2)c1` (centres unmarked) [Example 42]: the inhibition at 10 µM is 55%.

For the molecule `Cc1cc(-c2c(C)c3cccc4c3n2CC(CCC(=O)N2CCN(c3ccccn3)CC2)O4)cc(C)c1O` (centres unmarked) [Example 26], the inhibition at 10 µM came to 96%.

Turning to `Cc1ccnc(N2CCN(CCC3Cn4c(-c5ccc(O)c(O)c5)c(C)c5cccc(c54)O3)CC2)c1` (centres unmarked) [Example 13], the inhibition at 10 µM was 99%.

`Cc1cc(-c2c(C)c3c(OCc4ccccc4)ccc4c3n2CC(CCC(=O)N2CCN(c3ccccn3)CC2)O4)cc(C)c1O` (centres unmarked) [Example 75]: the inhibition at 10 µM was 100%.

Turning to `Cc1ccnc(N2CCN(C(=O)CCC3Cn4c(-c5ccc(O)cc5)c(C)c5c(O)ccc(c54)O3)CC2)c1` (centres unmarked) [Example 69], the inhibition at 10 µM was 100%.

`Cc1cc(-c2c(C)c3c(F)ccc4c3n2CC(CCN2CCN(c3ccccn3)CC2)O4)cc(C)c1O` (centres unmarked) [Example 27]: the inhibition at 10 µM turned out to be 50%.

Consider `Cc1ccc(N2CCN(C(=O)CCC3Cn4c(-c5ccc(O)cc5)c(C)c5cccc(c54)O3)CC2)nc1` (centres unmarked) [Example 34], for which the inhibition at 10 µM was determined as 97%.

In the case of `Cc1cc(-c2c(C)c3cccc4c3n2CC(CCCC(=O)N2CCN(c3ccccn3)CC2)O4)cc(C)c1O` (centres unmarked) [Example 23], the inhibition at 10 µM is 93%.

On to `Cc1cccnc1N1CCN(CCCC2Cn3c(-c4cc(C)c(O)c(C)c4)c(C)c4c(O)ccc(c43)O2)CC1` (centres unmarked) [Example 74], for which the inhibition at 10 µM is 100%.

Turning to `COc1cc(-c2c(C)c3cccc4c3n2CC(CCN2CCN(c3cc(C)ccn3)CC2)O4)ccc1O` (centres unmarked) [Example 12], the inhibition at 10 µM came to 100%.

`COc1cc2c3c(c1)c(C)c(-c1cc(C)c(O)c(C)c1)n3CC(CCN1CCN(c3cc(C)ccn3)CC1)O2` (centres unmarked) [Example 43]: the inhibition at 10 µM was 77%.

Regarding `COc1cc(-c2c(C)c3c(O)ccc4c3n2CC(CCC(=O)N2CCN(c3ccccn3)CC2)O4)cc(C)c1O` (centres unmarked) [Example 72], the inhibition at 10 µM is 100%.

Regarding `Cc1ccnc(N2CCN(CCCC3Cn4c(-c5cc(C)c(O)c(C)c5)c(C)c5c(O)ccc(c54)O3)CC2)c1` (centres unmarked) [Example 73], the inhibition at 10 µM is 100%.

With `Cc1ccnc(N2CCN(C(=O)CCC3Cn4c(-c5cc(C)c(O)c(C)c5)c(C)c5c(O)ccc(c54)O3)CC2)c1` (centres unmarked) [Example 67], the inhibition at 10 µM stood at 100%.

On to `COc1ccc2c3c1c(C)c(-c1ccc(O)cc1)n3CC(CCN1CCN(c3cc(C)ccn3)CC1)O2` (centres unmarked) [Example 3, 2,3-Dihydro-5-(4-hydroxyphenyl)-7-methoxy-6-methyl-2-[2-(4-(4-methylpyridin-2-yl)piperazin-1-yl)ethyl]pyrrolo[1,2,3-de]-1,4-benzoxazine], for which the inhibition at 10 µM amounted to 53%.

In the case of `Cc1ccnc(N2CCN(CCCC3Cn4c(-c5cc(C)c(O)c(C)c5)c(C)c5c(F)ccc(c54)O3)CC2)c1` (centres unmarked) [Example 29], the inhibition at 10 µM was found to be 67%.

On to `Cc1ccnc(N2CCN(CCC3Cn4c(-c5ccc(O)cc5)c(C)c5c(O)ccc(c54)O3)CC2)c1` (centres unmarked) [Example 4, 2,3-Dihydro-7-hydroxy-5-(4-hydroxyphenyl)-6-methyl-2-[2-(4-(4-methylpyridin-2-yl)piperazin-1-yl)ethyl]pyrrolo[1,2,3-de]-1,4-benzoxazine], for which the inhibition at 10 µM was 100%.

For the origin of these results see patent US5474988A, “5-phenylpyrrolo-1,4-benzoxazine and 5-phenylpyrrolo-1,4-benzothiazine compounds, process and intermediates for their production and pharmaceutical compositions containing them” (Kali-Chemie Pharma GmbH, priority 1993, dated 1995).
